Earlier results in patent US10842739B2, “Biodegradable alpha-2 agonist polymeric implants and therapeutic uses thereof” (Allergan, Inc., priority 2008, dated 2020).
Where two headings read alike, the source gives them in different places.

## Brc1c(NC2=NCCN2)ccc2nccnc12 [brimonidine freebase, 5-bromo-6-(2-imidazolidinylideneamino)quinoxaline]
  water solubility (in words): negligible
Listed as Brimonidine free base
  water solubility (in words): poorly water soluble
Listed as brimonidine free base
  water solubility (in words): not water soluble
